# Data reported in patent US20240398813A1, “PHARMACEUTICAL COMPOSITION FOR PREVENTING OR TREATING OVERACTIVE BLADDER” (GWANGJU INSTITUTE OF SCIENCE AND TECHNOLOGY, priority 2021, published 2024).
# Experiments:
# [1] = target: T1, hyperactive mutant BKCa channels (hSlo G803D/N806K) stably expressed in AD 293 cells (Homo sapiens, UniProt Q12791, G856D/N859K); test: Cell-based fluorescence assay (FluxOR Potassium Ion Channel Assay) of BKCa channel activation; set-up: key to Channel activity increase for 80 s (ΔRFU) at 6 μM: ratio of ΔRFU (RFU at 100 s − 20 s) to the same ΔRFU for vehicle
# T1 construct: expressed in transfected cells
# In short: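 AD 293 cells stably expressing hSlo G803D/N806K were exposed to compound in assay buffer for 15 min, then read by FluxOR thallium-flux fluorescence (ex 485/em 528 nm) every 2 s for 120 s. Initial rate vi from 20–24 s; ΔRFU from 20–100 s, normalised to vehicle and measured at 6 μM; apparent EC50 from dose-response fit.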
# [2] = tested on: Spontaneously hypertensive rats (SHR); test: In vivo model of OAB: urination in spontaneously hypertensive rats after oral administration; set-up: species or system rat; conditions: 3 hours
# Experimental: Male rats with body weights of 300 to 350 g were deprived of food and water overnight before the experiment, and then were randomly divided into a drug administration group and a control group. All animals were provided free access to water for 2 hours, and then 10 mL/kg of vehicle solution [DMSO:PEG400:distilled water=5:40:55 (v/v)] as a test substance were orally administered. After oral administration of the test substance, the rats were placed in a metabolic cage and the number of urinations and urine volume were measured for 3 hours.
# The in vivo treatment effects of the compounds for […] were investigated in spontaneously hypertensive rats (SHR) with OAB symptoms after oral administration. Wistar-Kyoto rats (WKY) were used as the healthy animal control, and urination frequency was increased more than 2.8 times in SHR compared to WKY. Compound 208 reduced the urination frequency in SHR (50 mg/kg) by 33%, which is quite close to the urination frequency of the normal group (see FIG. 18).
# T1 sequence (Q12791 whole entry G856D/N859K): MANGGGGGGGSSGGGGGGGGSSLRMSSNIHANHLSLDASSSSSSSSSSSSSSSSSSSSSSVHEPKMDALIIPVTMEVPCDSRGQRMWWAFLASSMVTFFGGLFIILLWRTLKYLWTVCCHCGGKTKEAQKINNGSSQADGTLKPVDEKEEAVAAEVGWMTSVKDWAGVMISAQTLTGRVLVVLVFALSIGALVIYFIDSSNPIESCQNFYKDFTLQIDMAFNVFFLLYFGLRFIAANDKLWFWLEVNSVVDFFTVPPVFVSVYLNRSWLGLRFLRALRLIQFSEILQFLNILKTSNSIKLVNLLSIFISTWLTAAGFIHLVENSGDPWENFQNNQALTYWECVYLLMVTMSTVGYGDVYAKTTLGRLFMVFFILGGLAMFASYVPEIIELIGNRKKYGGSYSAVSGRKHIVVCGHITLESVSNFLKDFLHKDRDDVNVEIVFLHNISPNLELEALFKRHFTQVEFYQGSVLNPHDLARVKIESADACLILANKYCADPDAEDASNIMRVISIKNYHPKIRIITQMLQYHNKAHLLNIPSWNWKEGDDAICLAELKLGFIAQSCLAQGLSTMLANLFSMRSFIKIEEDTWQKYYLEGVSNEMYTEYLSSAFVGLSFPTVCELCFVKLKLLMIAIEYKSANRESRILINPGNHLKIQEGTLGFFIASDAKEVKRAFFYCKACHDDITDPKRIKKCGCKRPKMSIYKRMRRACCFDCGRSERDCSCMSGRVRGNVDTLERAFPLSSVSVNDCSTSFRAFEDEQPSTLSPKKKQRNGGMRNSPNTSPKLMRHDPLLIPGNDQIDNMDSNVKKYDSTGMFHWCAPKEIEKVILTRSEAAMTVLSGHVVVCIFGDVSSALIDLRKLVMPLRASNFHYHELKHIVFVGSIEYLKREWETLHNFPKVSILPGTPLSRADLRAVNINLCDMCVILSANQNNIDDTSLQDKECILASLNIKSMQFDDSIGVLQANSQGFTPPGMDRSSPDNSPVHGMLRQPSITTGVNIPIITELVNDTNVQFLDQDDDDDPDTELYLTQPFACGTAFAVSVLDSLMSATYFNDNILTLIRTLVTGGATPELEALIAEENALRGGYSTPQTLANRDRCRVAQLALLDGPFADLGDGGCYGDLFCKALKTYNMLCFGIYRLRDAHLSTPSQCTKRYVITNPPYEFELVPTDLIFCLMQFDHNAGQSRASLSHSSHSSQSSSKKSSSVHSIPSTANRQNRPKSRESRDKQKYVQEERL
smiles,measurement,setting,value
"Cc1cccc(NC(=O)c2sc(=S)n3c2[nH]c(=O)c2cc(Br)ccc23)c1 [TTQC-1, 7-bromo-5-oxo-1-thioxo-N-(m-tolyl)-4,5-dihydro-1H-thiazolo[3,4-a]quinazoline-3-carboxamide]",increase in fluorescence induced by TTQC-1 in the presence of BKCa channel inhibitors,"[1]; 2 μM TTQC-1, 1 μM paxillin and 0.1 μM iberiotoxin",removed
same,activation effect on the BKCa channel relative to LDD175,[1]; 3 μM,1.6 times
same,activation effect on the BKCa channels at a single concentration,[1]; 3 μM,most potent effect
same,effect (ΔRFU) relative to vehicle,[1]; 6 μM,4.98±0.05 times
same,Initial velocity of channel activation for 4 s (vi) at 6 μM,"[1]; 6 μM, first 4 s after channel stimulation",9.77 s⁻¹
same,Channel activity increase for 80 s (ΔRFU) at 6 μM,"[1]; 6 μM, normalized by vehicle",4.98
same,concentration at which the Tl+ flux effect was saturated,[1]; 0.6-10 μM tested,6 µM
same,TTQC-1 activation effect in the presence of 0.1 μM iberiotoxin,[1]; TTQC-1 at concentrations above 4 μM,activated the BKCa channels
same,TTQC-1 activation effect in the presence of 0.1 μM iberiotoxin,[1]; TTQC-1 at concentrations below 2 μM,eliminated
same,EC50,"[1]; fit of dose-response curve of initial rates, read-out: Apparent EC50 based on vi",5.74 µM
same,number of urinary events,"[2]; 10 mg/kg oral, SHR vehicle 8.2",3.0
same,total urine volume,[2]; oral,significantly reduced
